Experimental data taken from patent US20210137948A1, “TREATMENT OF INFECTIONS CAUSED BY NEISSERIA GONOCOCCUS USING A HALOGENATED SALICYLANILIDE” (priority 2018, published 2021).
Values after ≈ are worked out from the molar mass of the structure shown. Where two headings read alike, the source gives them in different places.

What was measured:
Acinetobacter baumannii = assay: Broth microdilution MIC testing; format: cell-based; settings: Acinetobacter baumannii MMX 1630/ATCC 19606, susceptible; for MIC: ATCC19606, read-out: Minimal Inhibitory Concentration
Protocol: (§1) Broth microdilution assay: Mueller Hinton II broth (MHB II, BBL, BD, catalog no. 212322; lot no. 5257869) was used for testing most aerobes.
(§2) MIC values were determined using a broth microdilution procedure described by CLSI, see reference (1). Automated liquid handlers (Multidrop 384, Labsystems, Helsinki, Finland; Biomek 2000 and Biomek FX, Beckman Coulter, Fullerton Calif.) were used to conduct serial dilutions and liquid transfers.
(§3) The wells in Columns 2 through 12 of two standard 96-well microdilution plates (Costar 3795, Corning Inc., Corning, N.Y.) were filled with 150 μL of diluent specific to the compound tested. Three hundred microliters of each comparator and investigational drug solution (40× or 100×) was added to one well in Column 1 of the plates. The Biomek 2000 was used to complete the serial transfers through Column 11. The wells of Column 12 contained no drug and were the organism growth control wells. These panels were the “mother plates.”
(§4) Because drugs were prepared at either 40× or 100×, the “daughter plates” were loaded with 185-188 μL of the appropriate test media for the tested organism, using the Multidrop 384 or by hand. The daughter plates were prepared on the Biomek FX instrument, which transferred 2-5 μL of drug solution from each well of a mother plate to the corresponding well of each daughter plate in a single step. The wells of the daughter plates ultimately contained 185-188 μL of broth appropriate to the organism, 2-5 μL of drug solution, and 10 μL of bacterial inoculum prepared in broth.
(§5) Standardized inoculum of each organism was prepared per CLSI methods, see reference (1). The inoculum for each organism was dispensed into sterile reservoirs divided by length (Beckman Coulter), and the Biomek 2000 was used to inoculate the plates. Daughter plates were placed on the Biomek 2000 work surface in reverse orientation so that inoculation took place from low to high drug concentration. The Biomek 2000 delivered 10 μL of standardized inoculum into each well. This yielded a final cell density in the daughter plates of approximately 5×10^5 CFU/mL.
(§6) Plates were stacked 3 high, covered with a lid on the top plate, placed in plastic bags, and incubated at 35° C. for approximately 18 to 20 hr. Following incubation, the microplates were removed from the incubator and viewed from the bottom using a plate viewer. […] The MIC was read and recorded as the lowest concentration of drug that inhibited visible growth of the organism.

Enterobacter cloacae = assay: Broth microdilution MIC testing; format: cell-based; settings: Enterobacter cloacae MMX 6089, susceptible; for MIC: read-out: Minimal Inhibitory Concentration
Protocol: as §1, §2, §3, §4, §5, §6

Escherichia coli [1] = assay: Broth microdilution MIC testing; format: cell-based; settings: for MIC: Escherichia coli, read-out: Minimal Inhibitory Concentration
Protocol: as §1, §2, §3, §4, §5, §6

Klebsiella pneumoniae = assay: Broth microdilution MIC testing; format: cell-based; settings: Klebsiella pneumoniae MMX 214/ATCC 13883, susceptible; for MIC: ATCC13883, read-out: Minimal Inhibitory Concentration
Protocol: as §1, §2, §3, §4, §5, §6

Pseudomonas aeruginosa [2] = assay: Broth microdilution MIC testing; format: cell-based; settings: Pseudomonas aeruginosa MMX 103/ATCC 27853, susceptible, QC; for MIC: ATCC27853, read-out: Minimal Inhibitory Concentration
Protocol: as §1, §2, §3, §4, §5, §6

[3] = test system: Stenotrophomonas maltophila; assay: Broth microdilution MIC testing; format: cell-based; settings: Stenotrophomonas maltophila MMX 4746, susceptible; for MIC: Stenotrophomonas sp. LMG 10879, read-out: Minimal Inhibitory Concentration
Protocol: as §1, §2, §3, §4, §5, §6

Escherichia coli [4] = settings: Escherichia coli MMX 102/ATCC 25922, range in parentheses; cited from earlier work
Pseudomonas aeruginosa [5] = settings: Pseudomonas aeruginosa MMX 103/ATCC 27853, range in parentheses; cited from earlier work
[6] = test system: N. gonorrhoeae ATCC49226/MMX 683; assay: Agar dilution MIC assay (Example 1); format: cell-based, Neisseria gonorrhoeae; settings: Neisseria gonorrhoeae MMX 683/ATCC 49226, QC
Protocol: Neisseria gonococcus (N. gonorrhoeae) were assayed using a reference agar dilution method, see reference (2). Drug dilutions and drug-supplemented agar plates were prepared manually. Neisseria gonococcus was grown on Chocolate agar in a CO2 incubator overnight at 35° C. prior to assay. […] The MIC was read per CLSI guidelines, see reference (3).

[7] = Escherichia coli MMX 102/ATCC 25922, QC strain

MIC ([6]; ATCC49226, read-out: Minimal Inhibitory Concentration) | SMILES | MIC (Acinetobacter baumannii) | Minimal Inhibitory Concentration (Acinetobacter baumannii) | MIC (Enterobacter cloacae) | MIC (Escherichia coli [1]; ATCC25922) | MIC (Escherichia coli [1]) | MIC (Klebsiella pneumoniae) | MIC (Pseudomonas aeruginosa [2]) | Minimal Inhibitory Concentration [3] | MIC [3] | CLSI QC range of MIC (Escherichia coli [4]) | CLSI QC range of MIC (Pseudomonas aeruginosa [5]) | Minimal Inhibitory Concentration (Enterobacter cloacae) | Minimal Inhibitory Concentration (Escherichia coli [1]; [7]) | Minimal Inhibitory Concentration (Klebsiella pneumoniae) | Minimal Inhibitory Concentration (Escherichia coli [1]; Escherichia coli MMX 120, acrAB efflux pump knockout) | Minimal Inhibitory Concentration (Pseudomonas aeruginosa [2]) | Minimal Inhibitory Concentration [6]
 | C[C@H]1c2cccc(O)c2C(=O)C2=C(O)[C@]3(O)C(=O)C(C(N)=O)=C(O)[C@@H](N(C)C)[C@@H]3[C@@H](O)[C@@H]21 [Doxycycline] | 0.5 µg/mL (≈ 1.13 µM) | 0.5 µg/mL | 1 µg/mL (≈ 2.25 µM) | 0.5 µg/mL (≈ 1.13 µM) | 0.25 µg/mL (≈ 0.563 µM) | 1 µg/mL (≈ 2.25 µM) | > 8 µg/mL | 0.5 µg/mL | 0.5 µg/mL (≈ 1.13 µM) |  |  |  |  |  |  |  | 
 | CC(C)(O/N=C(\C(=O)N[C@@H]1C(=O)N2C(C(=O)[O-])=C(C[n+]3ccccc3)CS[C@H]12)c1csc(N)n1)C(=O)O [Ceftazidime] | 4 µg/mL (≈ 7.32 µM) |  | 8 µg/mL (≈ 14.6 µM) | 0.25 µg/mL (≈ 0.457 µM) | 0.12 µg/mL (≈ 0.22 µM) | 0.5 µg/mL (≈ 0.915 µM) | 1 µg/mL (≈ 1.83 µM) |  | 4 µg/mL (≈ 7.32 µM) | (0.06-0.5) μg/ml | (1-4) μg/ml |  |  |  |  |  | 
 | NCC[C@H](O)C(=O)N[C@@H]1C[C@H](N)[C@@H](O[C@H]2O[C@H](CN)[C@@H](O)[C@H](O)[C@H]2O)[C@H](O)[C@H]1O[C@H]1O[C@H](CO)[C@@H](O)[C@H](N)[C@H]1O [Amikacin] | 16 µg/mL (≈ 27.3 µM) |  | 1 µg/mL (≈ 1.71 µM) | 4 µg/mL (≈ 6.83 µM) | 0.5 µg/mL (≈ 0.854 µM) | 0.5 µg/mL (≈ 0.854 µM) | 2 µg/mL (≈ 3.42 µM) |  | 2 µg/mL (≈ 3.42 µM) | (0.5-4) μg/ml | (1-4) μg/ml |  |  |  |  |  | 
 | C[C@H]1COc2c(N3CCN(C)CC3)c(F)cc3c(=O)c(C(=O)O)cn1c23 [Levofloxacin] | 0.5 µg/mL (≈ 1.38 µM) | 0.5 µg/mL | 0.03 µg/mL (≈ 0.083 µM) | 0.015 µg/mL (≈ 0.0415 µM) |  | 0.03 µg/mL (≈ 0.083 µM) | 1 µg/mL (≈ 2.77 µM) | 0.5 µg/mL | 0.5 µg/mL (≈ 1.38 µM) |  |  | 0.03 µg/mL | 0.015 µg/mL | 0.03 µg/mL |  |  | 
 | C[C@@H](O)[C@H]1C(=O)N2C(C(=O)O)=C(S[C@@H]3CN[C@H](C(=O)N(C)C)C3)[C@H](C)[C@H]12 [Meropenem] | 1 µg/mL (≈ 2.61 µM) |  | 0.06 µg/mL (≈ 0.156 µM) | 0.015 µg/mL (≈ 0.0391 µM) | 0.015 µg/mL (≈ 0.0391 µM) | 0.03 µg/mL (≈ 0.0782 µM) | 0.25 µg/mL (≈ 0.652 µM) |  | 2 µg/mL (≈ 5.22 µM) | (0.008-0.06) μg/ml | (0.12-1) μg/ml |  | 0.015 µg/mL | 0.03 µg/mL | 0.015 µg/mL | 0.25 µg/mL | 
0.004 µg/mL (≈ 0.0121 µM) | O=C(O)c1cn(C2CC2)c2cc(N3CCNCC3)c(F)cc2c1=O [Ciprofloxacin] |  |  |  |  |  |  |  |  |  |  |  |  |  |  |  |  | 0.004 µg/mL
 | CC1=C(C(=O)O)N2C(=O)[C@@H](NC(=O)[C@H](N)c3ccccc3)[C@H]2SC1 [Cephalexin] | > 32 µg/mL |  | > 32 µg/mL | 8 µg/mL (≈ 23 µM) | 8 µg/mL (≈ 23 µM) | 4 µg/mL (≈ 11.5 µM) | > 32 µg/mL |  | > 32 µg/mL |  |  |  |  |  |  |  | 
